Results published in article PMC8140080, “The lexicon of antimicrobial peptides: a complete set of arginine and tryptophan sequences” (Communications Biology, 2021).
Where a SMILES comes first, the peptide text is derived from it.

Assays:
P. aeruginosa PAO1 = assay: Antimicrobial assay (IC50 and MBC), broth microdilution; assay type: cell-based, Pseudomonas aeruginosa; conditions: Fig. 1a; range assayed 0.8-400 µM; b35 words are general, printed in the P. aeruginosa morphology study
Description: (§1) S. aureus ATCC 6538 and C. albicans ATCC 10231 were obtained from Oxoid (Basingstoke, UK), and P. aeruginosa PAO1 donated by the University of Nottingham. Bacteria were routinely grown using Mueller–Hinton broth or agar and yeast was grown using Sabaraud Dextrose broth or agar. Cultures were incubated aerobically on agar at 37 °C for 20 h or under the same conditions in broth with shaking at 200 rpm.
(§2) Planktonic cultures were obtained by inoculating single colonies from 18–20 h old agar cultures into 10 ml of sterile broth, followed by 20-h incubation. S. aureus and P. aeruginosa assays were performed using Mueller–Hinton broth and agar and C. albicans assays were performed using Sabaraud Dextrose broth and agar. […]
(§3) Peptide stock solutions of 800 µM were prepared by dissolving solid peptides (provided in pre-weighed aliquots by the supplier) in phosphate buffer solution (PBS) containing 5% (v/v) DMSO. […] Each polystyrene plate was then aerobically incubated at 37 °C for 18–20 h without shaking, before measuring OD600 using a spectrophotometer plate reader (Nanostar; BMG Labtech, Ayelsbury). […] The mean IC50 for each peptide was calculated from the results of four independent experiments, with a single technical replicate each. Specific activity was calculated by plotting IC50 (µM) multiplied by peptide length, against peptide length. […]

P. aeruginosa [1] = assay: Atomic force microscopy of peptide-treated bacteria; assay type: cell-based, Pseudomonas aeruginosa; conditions: 100 µM peptide, 2 min exposure, 37 °C; n = 6 cells
Description: A suspension of P. aeruginosa at ~10^7 CFU/ml in PBS was prepared as for SEM; 500 μl of this suspension was incubated with 500 μl of […] peptide (200 μM in PBS; 5% v/v DMSO) at 37 °C with shaking at 200 rpm for 45 min. As a negative control, 500 μl bacterial suspension was incubated with PBS containing 5% v/v DMSO. Samples of 50 μl were withdrawn from the suspensions at 2, 15 and 45 min for imaging by AFM. Chips were prepared by adsorbing 50 μl of poly-L-lysine onto a cleaved mica chip for 3 min. Excess poly-L-lysine was washed off by adding 10 × 200 μl aliquots of MilliQ water and excess water was removed using filter paper. Test samples were deposited onto the chips and left to adhere for 1-2 min, before further washing using 10 × 200 μl aliquots of MilliQ water, blotting off excess with filter paper, before leaving chips to air-dry overnight. Chips were scanned using a Bruker multimode 8 (Bruker, Billerica, USA) in ScanAsyst air mode. All images were taken at a resolution of 512 points per dimension unless stated otherwise, and are representative of single technical experiments. Images obtained were processed and different length measurements were performed using Gwyddion version 2.48 (http://gwyddion.net/). Measurements were taken of the long axis length, short axis length and maximum vertical height of the bacterium above the chip surface. […]

P. aeruginosa [2] = assay: Scanning electron microscopy of peptide-treated bacteria; assay type: cell-based, Pseudomonas aeruginosa; conditions: 1 h, 37 °C, ~10^7 CFU/ml in PBS, three independent experiments
S. aureus = conditions: read-out: minimum IC50; cited from earlier work
Description: (§4) A second general conclusion is that overall activity increases consistently with length. […] We previously reported variable activity in a group of cationic and hydrophobic AMPs based on apoE-derived AMPs, and a range of similar peptides we tested.

P. aeruginosa [3] = conditions: read-out: minimum IC50; cited from earlier work
Description: as §4

S. aureus ATCC 6538 = assay type: cell-based, Staphylococcus aureus
Description: as §1, §2, §3

[4] = Transmission electron microscopy of peptide aggregates; assay type: physicochemical; conditions: single independent experiment
Description: Peptides were prepared at 800 µM in PBS with 5% v/v DMSO, and any excessively large aggregates or dust removed by centrifugation (2000 × g, 5 min). Further dilutions (80 µM) were prepared in PBS with 5% v/v DMSO, and the latter diluent was also used to prepare control (peptide-free) grids. Carbon film 200 mesh copper transmission electron microscope (TEM) grids (Agar Scientific Ltd. Stanstead, UK) were initially functionalized using a glow discharger (K100X; Quorum technologies Ltd. Laughton, UK) under a current of 25 mA for 30 sec. These were then placed onto 10 µl droplets of each test sample solution for 1 min, and then transferred onto 10 µl droplets of 1% w/v uranyl acetate for a further minute. Excess solution was removed using filter paper and sample grids were air dried for at least 1 h. Grids were imaged using a Tecnai™ T12 BioTwin TEM (FEI Company. Hillsboro, USA). Images were cropped and scale bars were added using ImageJ. Images are representative of single independent experiments.

In the case of “RWWRWWR [C-terminal amidation and N-terminal acetylation]”, the “inhibitory activity (in words)” value (P. aeruginosa PAO1) is reported as “one of the most active”, the “bacterial height by AFM” value (P. aeruginosa [1]) is reported as “doubled” and the “mean bacterial width by AFM” value (P. aeruginosa [1]) is reported as “decreased by a third”. The “bacterial morphology by SEM” value (P. aeruginosa [2]; 80 µM peptide) was “formation of spheroid objects on the surface of the bacteria, indicative of membrane blebbing”, the “bacterial morphology by SEM” value (P. aeruginosa [2]; 400 µM peptide) was “dramatic reduction in the number of intact bacteria” and the IC50 (S. aureus) was 14 µM.

In the case of “RRWYRWWR [Y-containing octapeptide similar to RWWRWWR, from the authors' earlier work]”, the IC50 (P. aeruginosa [3]) is given as 21 µM.

Work on `CC(=O)N[C@@H](Cc1c[nH]c2ccccc12)C(=O)N[C@@H](Cc1c[nH]c2ccccc12)C(=O)N[C@@H](Cc1c[nH]c2ccccc12)C(=O)N[C@@H](CCCNC(=N)N)C(=O)N[C@@H](CCCNC(=N)N)C(=O)N[C@@H](CCCNC(=N)N)C(=O)N[C@@H](Cc1c[nH]c2ccccc12)C(N)=O` [WWWRRRW] (Ac-WWWRRRW-NH2) yielded an IC50 (S. aureus ATCC 6538; ATCC 6538) of 2.9 ± 0.3 µM.

In the case of “WWWRRRR [library heptapeptide of W and R; C-terminal amidation and N-terminal acetylation carried out for all peptides]”, the “increase of IC50 relative to WWWRRRW” value (S. aureus ATCC 6538; one residue changed, organism not given) is reported as 65 fold.

For “WRKWRKRWWWRKWRKRWW [ApoEdpL-W, 18mer apoE-derived antimicrobial peptide composed of W, R and K, from the authors' earlier work]”, the IC50 (P. aeruginosa [3]) is given as 7 µM.

With “WRWWWWW [library heptapeptide forming substantial aggregates at 800 µM; C-terminal amidation and N-terminal acetylation]” the “visible aggregates by TEM” value ([4]; 80 µM in PBS with 5% v/v DMSO) was “not” and the “visible aggregates by TEM” value ([4]; 800 µM in PBS with 5% v/v DMSO) was “Substantial visible aggregates were present”.

In the case of “RRRRRRR [C-terminal amidation and N-terminal acetylation carried out for all peptides]”, the “inhibitory activity (in words)” value (P. aeruginosa PAO1) is reported as “inactive”, the “bacterial morphology by SEM” value (P. aeruginosa [2]; 80 µM peptide) is reported as “no discernible change in morphology” and the “bacterial morphology by SEM” value (P. aeruginosa [2]; 400 µM peptide) is reported as “no discernible change in morphology”.
